{"source": "patent US20090156471A1", "about": "“Use of anti-amyloid agents for treating and typing pathogen infections” (RAMOT AT TEL AVIV UNIVERSITY LTD., priority 2005, published 2009)", "key": {"[1]": {"assay": "TEM analysis of peptide self-assembly into fibrillar structures", "assay_type": "physicochemical", "settings": "for self-assembly / fibril formation observed by TEM: peptide in water 10 to 50 mg/ml, room temperature, 3-6 days (micrographs: 50 mg/ml, 1 week)", "procedure": "TEM analysis—In all examined cases, peptides were dissolved in water to a concentration of 10 to 50 mg/ml and incubated at room-temperature (RT). Fresh stocks were prepared for each and every experiment. […] Following 1 minute, excess fluid was removed, and the grid was then negatively stained with 10 μl of 2% uranyl-acetate in water. Following 2 minutes, excess fluid was removed from the grid. Samples were viewed in JEOL 1200 EX transmission electron microscope. In the experiments shown, 50 mg/ml peptides were used and micrographs were taken following 1 week. Bar represents 100 nm."}, "[2]": {"assay": "Circular dichroism (CD) spectra and copper binding", "procedure": "FIGS. 2a-b are graphs showing copper binding to QHGGGN (SEQ ID NO: 5) peptide repeat. […] The titration of metal ions to the oligopeptide was performed using small aliquots from stock aqueous solutions of 25 mM CuCl2.2H2O. CD spectrum (250-800 nm) of QHGGGN (0.5 mM, pH 7.5) was measured with the addition of Cu^2+ in increments of 0.0125 mM (as a minimum) of CuCl2 (0.5 μl) from 0 up to 0.65 mM. Typically, 50 mM HEPES pH 7.5 buffer was used for CD studies. Spectra were obtained using an AVIV spectrapolarimeter and a 5 mm (FIG. 2a) and 10 mm (FIG. 2b) path length cuvettes.\nCircular dichroism (CD) spectra and Copper binding—Circular Dichroism (CD) spectra, 250-800 nm, of the curli QHGGGN hexapeptide repeat in the absence and presence were preformed. […] The titration of metal ions to the oligopeptide was performed using small aliquots from stock aqueous solutions of 25 mM CuCl2-2H2O. CD spectrum (250-800 nm) of QHGGGN (0.5 mM, pH 7.5) was measured with the addition of Cu^2+ in increments of 0.0125 mM (as a minimum) of CuCl2 (0.5 μl) from 0 up to 0.65 mM. 50 mM HEPES pH 7.5 buffer was used for CD studies."}, "[3]": {"test_system": "curli-expressing E. coli XL1-Blue(pMRInv) binding to bovine fibronectin", "assay": "Fibronectin binding (adhesion of bacteria to fibronectin coated wells)", "assay_type": "cell-based, Escherichia coli", "settings": "0.3 mM peptide, A405, FIG. 3b", "procedure": "The adhesion of bacteria to fibronectin coated wells was determined by measuring absorbance at 405 nm. For (A) and (B), each column is the average of three experiments.\nFibronectin binding—Binding was quantified using the protocol described by Gophna et al (32). Briefly, wells of microtiter plates were coated with 100 μl of 5 μg/ml solution of bovine fibronectin (Sigma). The two strains of bacteria were grown to mid-exponential phase (A600, 0.5-0.6) with the various peptides in LB, harvested and suspended in saline. Wells were blocked with 200 μl milk (3%) for 2 hours at RT. Two hundreds micro-liter saline containing 5×10^8 cells/ml bacteria (A600, 0.9) were added to the wells with 0.3 mM of the suitable peptide and were incubated at RT for 3 h. Wells were washed twice with 200 μl PBS-T (0.05% Tween) and once with 200 μl PBS. The optical density of adherent bacteria was determined by the use of a microplate reader (ELISA) (A405), subtracting the optical density of an empty coated well."}, "[4]": {"test_system": "curli-expressing E. coli K-12 XL1-Blue(pMRInv)", "assay": "Quantitative Congo red (CR) binding of curli expressing bacteria", "settings": "0.3 mM peptide, FIG. 3a", "method": "Binding units represent the decrease in absorbance (A487) of the CR solution after incubation with bacteria.\nCongo red binding—Bacterial inoculums were grown in 6 ml LB medium for 5-7 hours at 37° C. in the presence or absence of 0.3 mM peptide inhibitor, until the cultures reached A600 of approximately 1.2. Each culture was then pelleted (1 min/13200×g) and resuspended in 6 ml saline (0.8% NaCl). Three double dilutions were performed for each culture and bacterial concentrations were determined at A600. Each dilution was divided into 3 microtubes (1 ml for each) and pelleted by centrifugation for 2 min/13200×g. A 0.004% solution of CR (in saline) was prepared and optical density at 487 nm was measured against a saline background. One thousand, 500 and 200 μl of CR solution were then added to each dilution triplets, the bacteria were well resuspended in the dye and left for 10 min incubation at RT. Next, a second centrifugation (2 min/13200×g) was performed and the supernatants containing the remaining dye were recovered. The optical density at 487 nm of each supernatant was determined and compared to the initial absorbance.\nInhibition was examined by directly applying the putative peptide inhibitor at time zero to a growing culture in liquid medium at 37° C. Cells analyzed for CR binding when reached optical density (A600) of approximately 1.2 absorbance units (AU)."}, "[5]": {"test_system": "E. coli XL1-Blue(pMRInv) internalization into HEK293 cells", "assay": "Internalization assay (antibiotic protection assay) in HEK293 cells", "settings": "0.4 mM peptide, HEK293, 3 h at 37° C., gentamicin protection", "method": "Internalization assay—Epithelial cells were grown overnight in 24-well plates to 80% confluence (˜10^5 cells per well). Bacteria were inoculated in LB broth and grown at 37° C. for 16 h, diluted 100-fold, and grown to mid-exponential phase (A600, 0.4) in the presence or absence of 0.4 mM peptide inhibitor. Bacteria were then diluted to A600, 0.1 in LB and 20 μl were added to each well with epithelial monolayer for 3 h incubation at 37° C. […] Cells were washed once with PBS, pH 7.3, and PBS containing 100 μg/ml gentamicin was added. After 1.5 h incubation, the cells were washed twice in PBS, and lysed by 5 min incubation with ice-cold 0.5% triton X-100. Appropriate bacterial dilutions were plated to determine the number of viable internalized bacteria. E. coli XL1-Blue was maintained on Luria-Bertani (LB) agar and E. coli XL1-Blue(pMRInv) was maintained on LB agar containing 30 μg/ml kanamycin. […]\nFor that purpose, an antibiotic protection assay was effected using HEK293 cell-line. […] Following exposure to the antibiotic gentamicin, eukaryotic cells were analyzed for bacteria internalization rate by the determination of the colony forming units (cfu) of the surviving bacteria (FIG. 4a)."}, "[6]": {"biological_target": "the molecule itself", "assay": "TEM of peptide self-assembly"}}, "note": "“Also recorded” adds a separate entry of the source."}
{"molecule": "GQNHGG", "values": [{"measurement": "self-assembly / fibril formation observed by TEM", "setting": "[1]", "result": "fibril-like structured"}]}
{"molecule": "QHGGGN [curli hexapeptide repeat]", "values": [{"measurement": "fibrillization in the presence of copper", "setting": "[1]; electron microscopy, 48 hours with equimolar CuCl2 in 50 mM HEPES, pH 7.5, room-temperature", "result": "did not induce fibrillization"}, {"measurement": "self-assembly / fibril formation observed by TEM", "setting": "[1]", "result": "assembled into fibrillar structures"}, {"measurement": "self-assembly / fibril formation observed by TEM", "setting": "[1]; listed as NH2-QHGGGN-COOH", "result": "well-ordered fibrillar structures"}, {"measurement": "Cu^2+ binding stoichiometry", "setting": "[2]; CD signal at 590 nm, peptide 0.5 mM, pH 7.5, 50 mM HEPES, CuCl2 0 up to 0.65 mM", "result": "equimolar binding stoichiometry; also recorded: single Cu^2+ ion binding for each peptide molecule"}, {"measurement": "affinity of copper binding for a single repeat", "setting": "[2]; binding curve sigmoid at concentrations in the hundreds of μM range", "result": "not high"}]}
{"molecule": "QAGGGN", "values": [{"measurement": "structures observed by TEM after prolonged incubation", "setting": "[1]; following 30 days of incubation", "result": "only minor amounts of amorphous aggregates"}, {"measurement": "self-assembly / fibril formation observed by TEM", "setting": "[1]", "result": "ability was lost; also recorded: no ordered structures could be detected"}, {"measurement": "bacterial adhesion to fibronectin coated wells", "setting": "[3]", "result": "no significant effect"}, {"measurement": "binding of CR in comparison to XL1-Blue(pMRInv) grown in absence of peptide", "setting": "[4]", "result": "no significant difference"}]}
{"molecule": "NHQGGG", "values": [{"measurement": "self-assembly / fibril formation observed by TEM", "setting": "[1]", "result": "small amount but highly ordered assemblies"}]}
{"molecule": "QFGGGN", "values": [{"measurement": "fibril formation in a mixture of QFGGGN and QAGGGN peptides", "setting": "[1]; mixture with QAGGGN, 3-6 days incubation, TEM", "result": "not inhibited"}, {"measurement": "self-assembly / fibril formation observed by TEM", "setting": "[1]", "result": "assembled into fibrillar structures"}, {"measurement": "self-assembly / fibril formation observed by TEM", "setting": "[1]; listed as NH2-QFGGGN-COOH", "result": "well-ordered fibrillar structures"}, {"measurement": "bacterial adhesion to fibronectin coated wells", "setting": "[3]", "result": "no significant effect"}, {"measurement": "binding of CR in comparison to XL1-Blue(pMRInv) grown in absence of peptide", "setting": "[4]", "result": "no significant difference"}, {"measurement": "amount of internalized bacteria (cfu) in eukaryotic cells", "setting": "[5]", "result": "did not interfere with bacterial invasion process"}]}
{"molecule": "HGQGNG", "values": [{"measurement": "aggregation potential (amount of aggregates) of scrambled QHGGGN sequences", "setting": "[1]; TEM, FIG. 1c", "result": "highly aggregative and much more abundant"}, {"measurement": "self-assembly / fibril formation observed by TEM", "setting": "[1]", "result": "amorphous aggregates"}]}
{"molecule": "H-QFGGGN-OH (also called curlin repeat; oligopeptide repeat QFGGGN)", "note": "[QFGGGN peptide (NH2-QFGGGN-COOH)]", "values": [{"measurement": "binding result", "setting": "[6]", "result": "binds"}]}
{"molecule": "H-QHGGGN-OH (also called curli QHGGGN hexapeptide repeat)", "note": "[QHGGGN peptide (NH2-QHGGGN-COOH)]", "values": [{"measurement": "binding result", "setting": "[6]", "result": "binds"}]}
